One assay addresses TYK2 (Homo sapiens (Human), UniProt P29597). As to the kind of experiment: Biochemical JAK kinase assay (LanthaScreen), Tyk2. The conditions noted are these: read-out: Tyk2 pKi (converted). The method, boiled down:
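LanthaScreen format: phospho-STAT1 (pTyr701) detected with 2 nM Tb antibody after 10 mM EDTA quench. Kinase step used Km-level ATP and 200 nM STAT1 peptide, 1 h at ambient after 1 h pre-incubation. Inhibition fitted to IC50, reported as pKi.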
(In general: Time-resolved FRET reads energy transfer from a long-lived donor to a nearby acceptor.)

Assay [1] relates to IL-13 induced pSTAT6 in lung tissue. Nature of the assay: Murine model of IL-13 induced pSTAT6 induction in lung tissue. Conditions: balb/c mice, test compound 0.5 mg/mL, 50 μL by oral aspiration, IL-13 challenge eight hours later, lungs collected one hour after. The class given is in vivo, mouse. Here is the method:
IL-13 binds to cell surface receptors activating members of the Janus family of kinases (JAK) which then phosphorylate STAT6 and subsequently activate further transcription pathways. In the described model, a dose of IL-13 was delivered locally into the lungs of mice to induce the phosphorylation of STAT6 (pSTAT6) which is then measured as the endpoint.
Adult balb/c mice from Harlan were used in the assay. On the day of study, animals were lightly anesthetized with isoflurane and administered either vehicle or test compound (0.5 mg/mL, […] total volume over several breaths) via oral aspiration.
Animals were placed in lateral recumbency post dose and monitored for full recovery from anesthesia before being returned to their home cage. Eight hours later, animals were once again briefly anesthetized and challenged with either vehicle or IL-13 (0.03 μg total dose delivered, 50 μL total volume) via oral aspiration before being monitored for recovery from anesthesia and returned to their home cage. One hour after vehicle or IL-13 administration, lungs were collected for both pSTAT6 detection using an AlphaLISA Immunoassay (PerkinElmer) and analyzed for total drug concentration.
Selected compounds of the present disclosure were tested in the assay. Activity in the model is evidenced by a decrease in the level of pSTAT6 present in the lungs of treated animals at 9 hours compared to the vehicle treated, IL-13 challenged control animals. The difference between the control animals which were vehicle-treated, IL-13 challenged and the control animals which were vehicle-treated, vehicle challenged dictated the 0% and 100% inhibitory effect, respectively, in any given experiment.

Chain of TYK2 (P29597 whole entry): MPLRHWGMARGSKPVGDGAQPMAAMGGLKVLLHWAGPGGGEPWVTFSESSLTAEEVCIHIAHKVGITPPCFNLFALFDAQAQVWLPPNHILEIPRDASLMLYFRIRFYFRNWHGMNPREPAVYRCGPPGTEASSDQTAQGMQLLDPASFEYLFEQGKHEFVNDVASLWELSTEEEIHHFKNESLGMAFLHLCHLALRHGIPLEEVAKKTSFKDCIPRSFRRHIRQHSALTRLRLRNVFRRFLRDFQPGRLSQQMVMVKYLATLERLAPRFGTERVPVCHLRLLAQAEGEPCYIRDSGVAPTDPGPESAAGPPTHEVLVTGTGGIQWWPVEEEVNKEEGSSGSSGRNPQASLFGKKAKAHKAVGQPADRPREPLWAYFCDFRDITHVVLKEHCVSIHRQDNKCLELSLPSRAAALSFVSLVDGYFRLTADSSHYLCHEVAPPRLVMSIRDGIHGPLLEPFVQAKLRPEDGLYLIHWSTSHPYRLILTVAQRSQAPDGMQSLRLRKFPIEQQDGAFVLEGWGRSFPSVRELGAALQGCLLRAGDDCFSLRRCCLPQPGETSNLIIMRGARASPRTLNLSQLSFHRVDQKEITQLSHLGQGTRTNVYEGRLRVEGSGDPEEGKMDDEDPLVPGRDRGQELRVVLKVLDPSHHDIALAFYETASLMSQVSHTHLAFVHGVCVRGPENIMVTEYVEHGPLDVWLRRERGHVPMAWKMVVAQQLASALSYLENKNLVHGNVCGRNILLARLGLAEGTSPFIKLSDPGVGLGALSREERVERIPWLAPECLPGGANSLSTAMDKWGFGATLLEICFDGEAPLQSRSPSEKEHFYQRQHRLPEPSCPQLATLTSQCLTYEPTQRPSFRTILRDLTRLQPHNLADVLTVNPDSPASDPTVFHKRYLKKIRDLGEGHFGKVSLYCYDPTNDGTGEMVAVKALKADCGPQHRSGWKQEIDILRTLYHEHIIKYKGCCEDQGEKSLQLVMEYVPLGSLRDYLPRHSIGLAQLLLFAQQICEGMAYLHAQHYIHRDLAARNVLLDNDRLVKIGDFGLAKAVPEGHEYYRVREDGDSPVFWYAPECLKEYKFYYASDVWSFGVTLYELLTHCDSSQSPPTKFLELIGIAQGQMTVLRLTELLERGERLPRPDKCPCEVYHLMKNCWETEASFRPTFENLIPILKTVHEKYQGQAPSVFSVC

Consider `CCc1cc(O)ccc1-c1ccc2c(-c3nc(C4=CCNC4)c[nH]3)n[nH]c2c1F` [Compound 1, 4-(3-(4-(2,5-dihydro-1H-pyrrol-3-yl)-1H-imidazol-2-yl)-7-fluoro-1H-indazol-6-yl)-3-ethylphenol], for which the Ki at TYK2 was 1 to 10 nM. Further, the “% pSTAT6 inhibition at 8 hours” value in assay [1] is “A (A represents between 80% and 100% inhibition)”.
In the case of `CCc1cc(O)ccc1-c1ccc2c(-c3nc(C4=CCNCC4)c[nH]3)n[nH]c2c1` [Compound 3, 3-ethyl-4-(3-(4-(1,2,3,6-tetrahydropyridin-4-yl)-1H-imidazol-2-yl)-1H-indazol-6-yl)phenol], at TYK2, the Ki was 0.1 to 1 nM. Also, the “% pSTAT6 inhibition at 8 hours” value in assay [1] is “A (A represents between 80% and 100% inhibition)”.
In the case of `CCc1cc(O)ccc1-c1ccc2c(-c3nc(C4=CCNCC4)c[nH]3)n[nH]c2c1F` [Compound 2, 3-ethyl-4-(7-fluoro-3-(4-(1,2,3,6-tetrahydropyridin-4-yl)-1H-imidazol-2-yl)-1H-indazol-6-yl)phenol], the Ki on TYK2 was 1 to 10 nM. Also, the “% pSTAT6 inhibition at 8 hours” value in assay [1] is “A (A represents between 80% and 100% inhibition)”.

The values above are taken from US20240092758A1, “IMIDAZOLO INDAZOLE COMPOUNDS AS JAK INHIBITORS” (Theravance Biopharma R&D IP, LLC, priority 2021, published 2024).
